Data reported in US6750240B2, “Methods of using bis-indolylquinones” (Sugen, Inc., priority 1997, dated 2004).

Assays:
[1] = tested on: human epidermoid carcinoma (A431, ATCC CRL 1555); assay: In vivo tumor growth of A431 cells implanted into the hindflank of athymic mice; parameters: species or system Female athymic mice (BALB/c, nu/nu)
Protocol: The following example illustrates the use of the compounds of the invention in an in vivo model of tumor growth.
Female athymic mice (BALB/c, nu/nu) were obtained from Simonsen Laboratories (Gilroy, Calif.). All animals were maintained under clean-room conditions in Micro-isolator cages with Alpha-dri bedding. They received sterile rodent chow and water ad libitum. A cell line established from a human epidermoid carcinoma (A431, ATCC CRL 1555) was grown in DMEM with 10% FBS and 2 mM GLN. All cell culture media, glutamine, and fetal bovine serum were purchased from Gibco Life Technologies (Grand Island, N.Y.) unless otherwise specified. All cells were grown in a humid atmosphere of 90-95% air and 5-10% CO2 at 37° C. All cell lines were routinely subcultured twice a week and were negative for mycoplasma as determined by teh Mycotect method (Gibco). Cells were harvested at or near confluency with 0.05% Trypsin-EDTA and pelleted at 450×g for 10 min. Pellets were resuspended in sterile PBS or media (without FBS) to a particular concentration and the cells were implanted into the hindflank of the mice ([…] mice per group). Tumor growth was measured, over 3 to 6 weeks using venier calipers. Tumor volumes were calculated as a product of length×width×height unless otherwise indicated. P values were calculated using the Students' t-test. Compound 1 (from Example 1 and Table I) in 100 μL excipient (VPD:D5W, 1:1 (VPD−12% w/v polysorbate 80, 0.55% citric acid (anhydrous), 35% w/v polyenthlene glycol (MW=300 daltons) and 26.3% v/v 190 proof ethanol diluted 1:22 in 5% dextrose in water (D5W) was delivered by IP injection at different concentrations. Control animals received VPD:D5W alone. Animals were dosed daily on days 1-5 (high dose), days 1-9 (mid-dose) or throughout the study (low dose).
The results are shown below as a percent tumor reduction compared to controls.

[2] = biological target: HIV-reverse transcriptase (Human immunodeficiency virus type 1 group M subtype B, UniProt P03366); conditions: cited from earlier work

Row | Structure (SMILES) | % inhibition (percent tumor reduction compared to controls) ([1]; 2.5 mg/kg/day IP (low dose, dosed daily throughout the study), Day 7, A431 tumor) [%] | % inhibition (percent tumor reduction compared to controls) ([1]; 2.5 mg/kg/day IP (low dose, dosed daily throughout the study), Day 18, A431 tumor) [%] | % inhibition (percent tumor reduction compared to controls) ([1]; 5 mg/kg/day IP (mid-dose, days 1-9), Day 7, A431 tumor) [%] | % inhibition (percent tumor reduction compared to controls) ([1]; 5 mg/kg/day IP (mid-dose, days 1-9), Day 18, A431 tumor) [%] | % inhibition (percent tumor reduction compared to controls) ([1]; 7.5 mg/kg/day IP (high dose, days 1-5), Day 7, A431 tumor) [%] | % inhibition (percent tumor reduction compared to controls) ([1]; 7.5 mg/kg/day IP (high dose, days 1-5), Day 18, A431 tumor) [%] | tumor growth inhibition, dose dependence ([1]; IP, 2.5-7.5 mg/kg/day, A431 tumor in athymic mice) | tumor growth after cessation of treatment ([1]; after cessation of treatment with the compound) | inhibition of HIV-reverse transcriptase [2]
1 | CC(C)CCc1[nH]c2ccccc2c1C1=C(O)C(=O)C(c2c(CCC(C)C)[nH]c3ccccc23)=C(O)C1=O [Compound 1, 2,5-Dihydroxy-3,6-di-[2-(3-methyl-n-butyl)indol-3-yl]-1,4-quinone] | 11 | 0 | 30 | 38 | 55 | 50 | inhibited tumor growth in a dose dependent manner | remained inhibited even after cessation of treatment | –
2 | C=CC(C)(C)n1cc(C2=C(O)C(=O)C(c3cn(C(C)(C)C=C)c4ccccc34)=C(O)C2=O)c2ccccc21 [asterriquinone, 2,5-bis[N-(1″,1″-dimethyl-2″-propenyl)indol-3″-yl]-3,6-dihydroxy-1,4-benzoquinone] | – | – | – | – | – | – | – | – | strong inhibitors
